In PubChem BioAssay (NCI):
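Method: 48-hour compound exposure of cells in 96-well plates, five concentrations, linear interpolation of endpoints. GI50 marks 50% less growth. TGI is the concentration that stops growth completely.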

Key:
Assay in all cases: NCI-60 cell line screen, 48 h
786-0 renal = test system: 786-0 renal
A498 renal = test system: A498 renal
A549 NSCLC = test system: A549 NSCLC
ACHN renal = test system: ACHN renal
CAKI-1 renal = test system: CAKI-1 renal
COLO 205 colon = test system: COLO 205 colon
EKVX NSCLC = test system: EKVX NSCLC
HCC-2998 colon = test system: HCC-2998 colon
HCT-116 colon = test system: HCT-116 colon
HCT-15 colon = test system: HCT-15 colon
HL-60(TB) leukemia = test system: HL-60(TB) leukemia
HOP-62 NSCLC = test system: HOP-62 NSCLC
HOP-92 NSCLC = test system: HOP-92 NSCLC
HT29 colon = test system: HT29 colon
IGROV1 ovarian = test system: IGROV1 ovarian
KM12 colon = test system: KM12 colon
KM20L2 colon = test system: KM20L2 colon
LOX IMVI melanoma = test system: LOX IMVI melanoma
M14 melanoma = test system: M14 melanoma
MALME-3M melanoma = test system: MALME-3M melanoma
MOLT-4 leukemia = test system: MOLT-4 leukemia
NCI-H226 lung = test system: NCI-H226 lung
NCI-H23 lung = test system: NCI-H23 lung
NCI-H460 lung = test system: NCI-H460 lung
NCI-H522 lung = test system: NCI-H522 lung
OVCAR-3 ovarian = test system: OVCAR-3 ovarian
OVCAR-4 ovarian = test system: OVCAR-4 ovarian
OVCAR-5 ovarian = test system: OVCAR-5 ovarian
OVCAR-8 ovarian = test system: OVCAR-8 ovarian
RPMI-8226 leukemia = test system: RPMI-8226 leukemia
RXF 393 renal = test system: RXF 393 renal
SF-268 CNS = test system: SF-268 CNS
SF-295 CNS = test system: SF-295 CNS
SF-539 CNS = test system: SF-539 CNS
SK-MEL-2 melanoma = test system: SK-MEL-2 melanoma
SK-MEL-28 melanoma = test system: SK-MEL-28 melanoma
SK-MEL-5 melanoma = test system: SK-MEL-5 melanoma
SK-OV-3 ovarian = test system: SK-OV-3 ovarian
SN12C renal = test system: SN12C renal
SNB-75 CNS = test system: SNB-75 CNS
SR leukemia = test system: SR leukemia
SW-620 colon = test system: SW-620 colon
TK-10 renal = test system: TK-10 renal
U251 CNS = test system: U251 CNS
UACC-257 melanoma = test system: UACC-257 melanoma
UACC-62 melanoma = test system: UACC-62 melanoma
UO-31 renal = test system: UO-31 renal

**Q.** For CC[O-].CC[O-].O=C([CH-]C(=O)c1ccccc1)c1ccccc1.O=C([CH-]C(=O)c1ccccc1)c1ccccc1.[Ti+4], which GI50 (786-0 renal) is on record?
**A.** > 100 µM

**Q.** What about the TGI (786-0 renal) of the same molecule?
**A.** > 100 µM

**Q.** And the GI50 (A498 renal)?
**A.** > 100 µM

**Q.** And the TGI (A498 renal)?
**A.** > 100 µM

**Q.** What about the GI50 (A549 NSCLC) of the same molecule?
**A.** > 100 µM

**Q.** And the TGI (A549 NSCLC)?
**A.** > 100 µM

**Q.** And the GI50 (ACHN renal)?
**A.** > 100 µM

**Q.** What about the TGI (ACHN renal) of the same molecule?
**A.** > 100 µM

**Q.** And the GI50 (CAKI-1 renal)?
**A.** > 100 µM

**Q.** What about the TGI (CAKI-1 renal) of the same molecule?
**A.** > 100 µM

**Q.** What about the GI50 (COLO 205 colon) of the same molecule?
**A.** > 100 µM

**Q.** And the TGI (COLO 205 colon)?
**A.** > 100 µM

**Q.** What about the GI50 (EKVX NSCLC) of the same molecule?
**A.** > 100 µM

**Q.** What about the TGI (EKVX NSCLC) of the same molecule?
**A.** > 100 µM

**Q.** And the GI50 (HCC-2998 colon)?
**A.** > 100 µM

**Q.** And the TGI (HCC-2998 colon)?
**A.** > 100 µM

**Q.** What about the GI50 (HCT-116 colon) of the same molecule?
**A.** > 100 µM

**Q.** What about the TGI (HCT-116 colon) of the same molecule?
**A.** > 100 µM

**Q.** And the GI50 (HCT-15 colon)?
**A.** > 100 µM

**Q.** What about the TGI (HCT-15 colon) of the same molecule?
**A.** > 100 µM

**Q.** What about the GI50 (HL-60(TB) leukemia) of the same molecule?
**A.** 25.3 µM

**Q.** What about the TGI (HL-60(TB) leukemia) of the same molecule?
**A.** > 100 µM

**Q.** What about the GI50 (HOP-62 NSCLC) of the same molecule?
**A.** > 100 µM

**Q.** What about the TGI (HOP-62 NSCLC) of the same molecule?
**A.** > 100 µM

**Q.** And the GI50 (HOP-92 NSCLC)?
**A.** 44.3 µM

**Q.** And the TGI (HOP-92 NSCLC)?
**A.** > 100 µM

**Q.** And the GI50 (HT29 colon)?
**A.** > 100 µM

**Q.** And the TGI (HT29 colon)?
**A.** > 100 µM

**Q.** What about the GI50 (IGROV1 ovarian) of the same molecule?
**A.** > 100 µM

**Q.** What about the TGI (IGROV1 ovarian) of the same molecule?
**A.** > 100 µM

**Q.** What about the GI50 (KM12 colon) of the same molecule?
**A.** > 100 µM

**Q.** And the TGI (KM12 colon)?
**A.** > 100 µM

**Q.** And the GI50 (KM20L2 colon)?
**A.** > 100 µM

**Q.** And the TGI (KM20L2 colon)?
**A.** > 100 µM

**Q.** What about the GI50 (LOX IMVI melanoma) of the same molecule?
**A.** > 100 µM

**Q.** What about the TGI (LOX IMVI melanoma) of the same molecule?
**A.** > 100 µM

**Q.** And the GI50 (M14 melanoma)?
**A.** > 100 µM

**Q.** And the TGI (M14 melanoma)?
**A.** > 100 µM

**Q.** And the GI50 (MALME-3M melanoma)?
**A.** > 100 µM

**Q.** What about the TGI (MALME-3M melanoma) of the same molecule?
**A.** > 100 µM

**Q.** And the GI50 (MOLT-4 leukemia)?
**A.** 46.5 µM

**Q.** What about the TGI (MOLT-4 leukemia) of the same molecule?
**A.** > 100 µM

**Q.** What about the GI50 (NCI-H226 lung) of the same molecule?
**A.** 25.2 µM

**Q.** And the TGI (NCI-H226 lung)?
**A.** > 100 µM

**Q.** And the GI50 (NCI-H23 lung)?
**A.** > 100 µM

**Q.** And the TGI (NCI-H23 lung)?
**A.** > 100 µM

**Q.** And the GI50 (NCI-H460 lung)?
**A.** 44.3 µM

**Q.** What about the TGI (NCI-H460 lung) of the same molecule?
**A.** > 100 µM

**Q.** And the GI50 (NCI-H522 lung)?
**A.** > 100 µM

**Q.** And the TGI (NCI-H522 lung)?
**A.** > 100 µM

**Q.** What about the GI50 (OVCAR-3 ovarian) of the same molecule?
**A.** > 100 µM

**Q.** What about the TGI (OVCAR-3 ovarian) of the same molecule?
**A.** > 100 µM

**Q.** And the GI50 (OVCAR-4 ovarian)?
**A.** > 100 µM

**Q.** What about the TGI (OVCAR-4 ovarian) of the same molecule?
**A.** > 100 µM

**Q.** And the GI50 (OVCAR-5 ovarian)?
**A.** > 100 µM

**Q.** And the TGI (OVCAR-5 ovarian)?
**A.** > 100 µM

**Q.** What about the GI50 (OVCAR-8 ovarian) of the same molecule?
**A.** 79.4 µM

**Q.** What about the TGI (OVCAR-8 ovarian) of the same molecule?
**A.** > 100 µM

**Q.** And the GI50 (RPMI-8226 leukemia)?
**A.** 45.4 µM

**Q.** What about the TGI (RPMI-8226 leukemia) of the same molecule?
**A.** > 100 µM

**Q.** What about the GI50 (RXF 393 renal) of the same molecule?
**A.** 39.1 µM

**Q.** And the TGI (RXF 393 renal)?
**A.** > 100 µM

**Q.** What about the GI50 (SF-268 CNS) of the same molecule?
**A.** > 100 µM

**Q.** What about the TGI (SF-268 CNS) of the same molecule?
**A.** > 100 µM

**Q.** What about the GI50 (SF-295 CNS) of the same molecule?
**A.** > 100 µM

**Q.** And the TGI (SF-295 CNS)?
**A.** > 100 µM

**Q.** What about the GI50 (SF-539 CNS) of the same molecule?
**A.** 19.8 µM

**Q.** What about the TGI (SF-539 CNS) of the same molecule?
**A.** > 100 µM

**Q.** What about the GI50 (SK-MEL-2 melanoma) of the same molecule?
**A.** > 100 µM

**Q.** What about the TGI (SK-MEL-2 melanoma) of the same molecule?
**A.** > 100 µM

**Q.** And the GI50 (SK-MEL-28 melanoma)?
**A.** > 100 µM

**Q.** What about the TGI (SK-MEL-28 melanoma) of the same molecule?
**A.** > 100 µM

**Q.** What about the GI50 (SK-MEL-5 melanoma) of the same molecule?
**A.** > 100 µM

**Q.** And the TGI (SK-MEL-5 melanoma)?
**A.** > 100 µM

**Q.** And the GI50 (SK-OV-3 ovarian)?
**A.** > 100 µM

**Q.** And the TGI (SK-OV-3 ovarian)?
**A.** > 100 µM

**Q.** What about the GI50 (SN12C renal) of the same molecule?
**A.** > 100 µM

**Q.** And the TGI (SN12C renal)?
**A.** > 100 µM

**Q.** What about the GI50 (SNB-75 CNS) of the same molecule?
**A.** 61.6 µM

**Q.** And the TGI (SNB-75 CNS)?
**A.** > 100 µM

**Q.** And the GI50 (SR leukemia)?
**A.** 62.4 µM

**Q.** And the TGI (SR leukemia)?
**A.** > 100 µM

**Q.** What about the GI50 (SW-620 colon) of the same molecule?
**A.** > 100 µM

**Q.** And the TGI (SW-620 colon)?
**A.** > 100 µM

**Q.** And the GI50 (TK-10 renal)?
**A.** > 100 µM

**Q.** What about the TGI (TK-10 renal) of the same molecule?
**A.** > 100 µM

**Q.** What about the GI50 (U251 CNS) of the same molecule?
**A.** 57.2 µM

**Q.** And the TGI (U251 CNS)?
**A.** > 100 µM

**Q.** What about the GI50 (UACC-257 melanoma) of the same molecule?
**A.** > 100 µM

**Q.** What about the TGI (UACC-257 melanoma) of the same molecule?
**A.** > 100 µM

**Q.** And the GI50 (UACC-62 melanoma)?
**A.** > 100 µM

**Q.** What about the TGI (UACC-62 melanoma) of the same molecule?
**A.** > 100 µM

**Q.** What about the GI50 (UO-31 renal) of the same molecule?
**A.** > 100 µM

**Q.** What about the TGI (UO-31 renal) of the same molecule?
**A.** > 100 µM
